# Paper PMC8047011, “Enantiomers of 2-methylglutamate and 2-methylglutamine selectively impact mouse brain metabolism and behavior” (Scientific Reports, 2021)
# Where two headings read alike, the source gives them in different places.
# Assays:
# mGluR1 = biological target: T1, mGluR1 (Rattus norvegicus, UniProt P23385); experiment: mGluR1 radioligand binding assay; conditions: triplicate
# T1 construct: purchased SB Drug Discovery (CNS discovery panel, FLIPR); Eurofins Discovery (Cerep)
# Description: (§1) mGluR1, mGluR2, mGluR5 and GABAB binding assays were performed by Eurofins Discovery. […]
# (§2) [3H]CGP-54626 and [3H]quisqalic acid, respectively. All compounds were tested at a single
# (§3) concentration of 100 uM in triplicate. […]
# mGluR2 = biological target: T2, mGluR2 (Homo sapiens, UniProt Q14416); experiment: mGluR2 radioligand binding assay; conditions: triplicate
# T2 construct: purchased SB Drug Discovery (CNS discovery panel, FLIPR); Eurofins Discovery (Cerep)
# Description: as §1, §2, §3
# mGluR5 = biological target: T3, mGluR5 (Homo sapiens, UniProt P41594); experiment: mGluR5 radioligand binding assay; conditions: triplicate
# T3 construct: purchased SB Drug Discovery (CNS discovery panel, FLIPR); Eurofins Discovery (Cerep)
# Description: as §1
# (§4) mGluR5 and GABAB binding assays were performed using recombinant CHO-K1 cells and
# as §2, §3
# NMDA nonspecific = experiment: Nonspecific NMDA binding assay; conditions: 100 μM, triplicate; rat
# Description: (§5) Nonspecific AMPA, kainate and NMDA binding assays were performed by Eurofins Discovery
# (§6) (Cerep) using rat cerebral cortex membranes and radiolabeled [3H]AMPA, [3H]kainic acid and
# (§7) [3H]CGP 39653, respectively. […]
# kainate nonspecific = experiment: Nonspecific kainate binding assay; conditions: 100 μM, triplicate; rat
# Description: as §5, §6, §7
# GABAA α2β3γ2 = biological target: T4, GABAA α2β3γ2 (Homo sapiens, UniProt P28472+P47869); experiment: FLIPR functional receptor assay, GABAA α2β3γ2; assay type: cell-based; conditions: agonist mode; top test concentration 1 mM
# T4 construct: host or cells: HEK 293
# Description: (§8) Receptor functional & binding assays
# (§9) Functional assays of all GABAA, NMDA (GluN2A–GluN2D) and AMPA (GluA2) receptor subunits were performed by SB Drug Discovery as a part of their CNS discovery panel using FLIPR technology. Briefly, receptor-expressing HEK 293 cell lines were incubated in a red membrane potential dye in HEPES:HBSS pH 7.4 buffer and the fluorescence (λex: 488, λex: 510–570) was monitored over time as the test compounds and/or reference compounds were added to the solution. In agonist assay, only test compounds were added. In positive allosteric modulator assay, cells were preincubated with test compounds and then low concentration (approximately EC20) of an appropriate agonist was added. In antagonist assay, cells were preincubated with test compounds and then high concentration (approximately EC80) of an appropriate agonist was added. For GABAA assays, GABA was used as the agonist, picrotoxin was used as the reference antagonist and allopregnanolone was used as the reference positive allosteric modulator (PAM). For NMDA assays, a mixture of glutamate, glycine and CaCl2 was used as the agonist, MK801 was the reference antagonist and pregnenolone sulfate or GNE 9278 were used as reference PAMs. […] All compounds were tested at 7 concentration points in triplicate and EC50/IC50 was determined where applicable. […]
# GABAA α3β1γ2 = biological target: T5, GABAA α3β1γ2 (Homo sapiens, UniProt P18505+P34903); experiment: FLIPR functional receptor assay, GABAA α3β1γ2; assay type: cell-based; conditions: agonist mode; top test concentration 1 mM
# T5 construct: host or cells: HEK 293
# Description: as §8, §9
# GABAA α3β2γ2 = biological target: T6, GABAA α3β2γ2 (Homo sapiens, UniProt P34903+P47870); experiment: FLIPR functional receptor assay, GABAA α3β2γ2; assay type: cell-based; conditions: agonist mode; top test concentration 1 mM
# T6 construct: host or cells: HEK 293
# Description: as §8, §9
# GABAA α3β3γ2 = biological target: T7, GABAA α3β3γ2 (Homo sapiens, UniProt P28472+P34903); experiment: FLIPR functional receptor assay, GABAA α3β3γ2; assay type: cell-based; conditions: top test concentration 1 mM; for EC50: agonist mode
# T7 construct: host or cells: HEK 293
# Description: as §8
# Functional assays of all GABAA, NMDA (GluN2A–GluN2D) and AMPA (GluA2) receptor subunits were performed by SB Drug Discovery as a part of their CNS discovery panel using FLIPR technology. Briefly, receptor-expressing HEK 293 cell lines were incubated in a red membrane potential dye in HEPES:HBSS pH 7.4 buffer and the fluorescence (λex: 488, λex: 510–570) was monitored over time as the test compounds and/or reference compounds were added to the solution. In agonist assay, only test compounds were added. In positive allosteric modulator assay, cells were preincubated with test compounds and then low concentration (approximately EC20) of an appropriate agonist was added. In antagonist assay, cells were preincubated with test compounds and then high concentration (approximately EC80) of an appropriate agonist was added. For GABAA assays, GABA was used as the agonist, picrotoxin was used as the reference antagonist and allopregnanolone was used as the reference positive allosteric modulator (PAM). For NMDA assays, a mixture of glutamate, glycine and CaCl2 was used as the agonist, MK801 was the reference antagonist and pregnenolone sulfate or GNE 9278 were used as reference PAMs. For AMPA assays, glutamate was used as the agonist, CNQX was the reference antagonist and cyclothiazide was used as the reference PAM. All compounds were tested at 7 concentration points in triplicate and EC50/IC50 was determined where applicable. […]
# GABAA α4β1γ2 = biological target: T8, GABAA α4β1γ2 (Homo sapiens, UniProt P18505+P48169); experiment: FLIPR functional receptor assay, GABAA α4β1γ2; assay type: cell-based; conditions: agonist mode; top test concentration 1 mM
# T8 construct: host or cells: HEK 293
# Description: as §8, §9
# GABAB (B1a/B2) = biological target: T9, GABAB (B1a/B2) (Homo sapiens, UniProt Q9UBS5); experiment: GABAB (B1a/B2) binding assay; conditions: triplicate, read-out: % of radioligand binding inhibition, GABAB (B1a/B2)
# T9 construct: purchased SB Drug Discovery (CNS discovery panel, FLIPR); Eurofins Discovery (Cerep)
# Description: as §1, §4, §2, §3
# GABAB (B1b/B2) = biological target: T10, GABAB (B1b/B2) (Homo sapiens, UniProt Q9UBS5); experiment: GABAB (B1b/B2) binding assay; conditions: triplicate, read-out: % of radioligand binding inhibition, GABAB (B1b/B2)
# T10 construct: purchased SB Drug Discovery (CNS discovery panel, FLIPR); Eurofins Discovery (Cerep)
# Description: as §1, §4, §2, §3
# GABAB (B1/B2) = biological target: T11, GABAB (B1/B2) (Homo sapiens, UniProt Q9UBS5); experiment: Functional GABAB assay, Ca2+-dependent fluorimetry in RBL cells; assay type: cell-based; conditions: 100 μM, triplicate
# T11 construct: purchased SB Drug Discovery (CNS discovery panel, FLIPR); Eurofins Discovery (Cerep)
# [1] = tested on: mouse cerebral synaptosomes; experiment: Potassium-induced neurotransmitter release assay; assay type: cell-based; conditions: preincubated with 100 μM substrate 15 min 37 °C; high-potassium KRP buffer
# Description: To each tube, 2.5 μL of a test compound solution (final concentration 100 μM) in Buffer KRP or Buffer KRP alone were added. Samples were incubated for 15 min at 37 °C, briefly chilled on ice, and then immediately centrifuged and washed twice with Buffer KRP. The resulting pellets were then resuspended in either Buffer KRP (500 μL) or Buffer K-KRP (500 μL). Samples were immediately centrifuged or incubated for 5, 10 or 15 min at 37 °C, then centrifuged and washed with Buffer KRP. Resulting pellets were resuspended in 400 μL of 60% ACN containing 2.5 μM Glu-d5 and 2.5 μM Gln-d5 as internal standards.
# [2] = tested on: primary murine cerebral astrocytes; experiment: Astrocyte transport and metabolism of 2MeGlu; assay type: cell-based, mouse; conditions: 1 mM substrate, 2 h, 37 °C
# Description: Primary astrocytes from C57Bl/6 mouse brain were cultured in complete astrocyte growth medium at 37 °C at 5% CO2 on 96 well plates. Cells were exposed to 1 mM compound in 100 μL medium for 2 h at 37 °C. Supernatants were collected, centrifuged at 2500g for 10 min at 4 °C. 10 μL aliquots were diluted with 190 μL 60% ACN containing 10 μM Glu-d5 and Gln-d5. Cells were quickly washed with 250 μL cold PBS twice and suspended in 200 μL of 60% ACN containing 10 μM Glu-d5 and Gln-d5. All samples were shaken at 1000 rpm for 5 min and then stored at – 80 °C.
# [3] = read-out: % of radioligand binding inhibition, mGluR5 (first line of Table S4)
# [4] = read-out: % of radioligand binding inhibition, mGluR5 (second line of Table S4)
# T7 sequence (P34903 29-492): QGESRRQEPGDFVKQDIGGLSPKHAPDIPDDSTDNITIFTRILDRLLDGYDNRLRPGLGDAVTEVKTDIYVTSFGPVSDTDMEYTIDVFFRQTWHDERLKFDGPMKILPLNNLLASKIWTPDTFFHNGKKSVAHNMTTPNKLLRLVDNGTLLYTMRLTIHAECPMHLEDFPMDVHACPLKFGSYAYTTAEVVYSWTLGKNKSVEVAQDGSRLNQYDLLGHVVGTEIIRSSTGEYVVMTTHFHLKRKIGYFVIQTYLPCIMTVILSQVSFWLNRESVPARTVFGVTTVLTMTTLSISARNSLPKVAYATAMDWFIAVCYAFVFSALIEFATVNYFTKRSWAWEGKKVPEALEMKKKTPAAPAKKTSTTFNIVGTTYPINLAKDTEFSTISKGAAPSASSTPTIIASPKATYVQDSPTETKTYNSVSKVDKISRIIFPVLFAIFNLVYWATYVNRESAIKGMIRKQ
# T7 sequence (P28472 26-473): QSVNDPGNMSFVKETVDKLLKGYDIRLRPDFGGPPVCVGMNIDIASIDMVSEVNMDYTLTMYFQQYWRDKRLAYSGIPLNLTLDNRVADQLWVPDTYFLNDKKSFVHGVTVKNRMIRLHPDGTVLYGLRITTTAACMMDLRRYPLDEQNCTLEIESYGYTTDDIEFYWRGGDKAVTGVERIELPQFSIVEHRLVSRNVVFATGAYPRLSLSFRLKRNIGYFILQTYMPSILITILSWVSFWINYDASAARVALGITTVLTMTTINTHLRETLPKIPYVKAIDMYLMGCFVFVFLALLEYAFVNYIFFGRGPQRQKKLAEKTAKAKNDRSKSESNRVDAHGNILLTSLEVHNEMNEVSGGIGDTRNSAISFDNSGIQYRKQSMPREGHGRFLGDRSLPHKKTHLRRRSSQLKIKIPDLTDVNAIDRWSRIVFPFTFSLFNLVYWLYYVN
# T7 sequence (P18507 40-475 partner): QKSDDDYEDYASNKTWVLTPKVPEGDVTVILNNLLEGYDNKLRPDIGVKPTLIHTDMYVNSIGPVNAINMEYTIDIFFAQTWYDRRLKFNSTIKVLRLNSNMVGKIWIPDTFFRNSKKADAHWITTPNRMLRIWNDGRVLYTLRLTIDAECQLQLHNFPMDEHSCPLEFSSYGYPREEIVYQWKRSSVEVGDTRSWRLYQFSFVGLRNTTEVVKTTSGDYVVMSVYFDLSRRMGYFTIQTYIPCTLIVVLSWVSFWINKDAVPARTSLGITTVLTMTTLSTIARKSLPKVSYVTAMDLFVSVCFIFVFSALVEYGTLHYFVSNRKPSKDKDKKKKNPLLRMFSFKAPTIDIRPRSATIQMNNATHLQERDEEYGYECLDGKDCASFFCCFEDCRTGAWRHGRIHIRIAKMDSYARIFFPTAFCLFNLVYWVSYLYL
# T3 sequence (P41594 21-1212): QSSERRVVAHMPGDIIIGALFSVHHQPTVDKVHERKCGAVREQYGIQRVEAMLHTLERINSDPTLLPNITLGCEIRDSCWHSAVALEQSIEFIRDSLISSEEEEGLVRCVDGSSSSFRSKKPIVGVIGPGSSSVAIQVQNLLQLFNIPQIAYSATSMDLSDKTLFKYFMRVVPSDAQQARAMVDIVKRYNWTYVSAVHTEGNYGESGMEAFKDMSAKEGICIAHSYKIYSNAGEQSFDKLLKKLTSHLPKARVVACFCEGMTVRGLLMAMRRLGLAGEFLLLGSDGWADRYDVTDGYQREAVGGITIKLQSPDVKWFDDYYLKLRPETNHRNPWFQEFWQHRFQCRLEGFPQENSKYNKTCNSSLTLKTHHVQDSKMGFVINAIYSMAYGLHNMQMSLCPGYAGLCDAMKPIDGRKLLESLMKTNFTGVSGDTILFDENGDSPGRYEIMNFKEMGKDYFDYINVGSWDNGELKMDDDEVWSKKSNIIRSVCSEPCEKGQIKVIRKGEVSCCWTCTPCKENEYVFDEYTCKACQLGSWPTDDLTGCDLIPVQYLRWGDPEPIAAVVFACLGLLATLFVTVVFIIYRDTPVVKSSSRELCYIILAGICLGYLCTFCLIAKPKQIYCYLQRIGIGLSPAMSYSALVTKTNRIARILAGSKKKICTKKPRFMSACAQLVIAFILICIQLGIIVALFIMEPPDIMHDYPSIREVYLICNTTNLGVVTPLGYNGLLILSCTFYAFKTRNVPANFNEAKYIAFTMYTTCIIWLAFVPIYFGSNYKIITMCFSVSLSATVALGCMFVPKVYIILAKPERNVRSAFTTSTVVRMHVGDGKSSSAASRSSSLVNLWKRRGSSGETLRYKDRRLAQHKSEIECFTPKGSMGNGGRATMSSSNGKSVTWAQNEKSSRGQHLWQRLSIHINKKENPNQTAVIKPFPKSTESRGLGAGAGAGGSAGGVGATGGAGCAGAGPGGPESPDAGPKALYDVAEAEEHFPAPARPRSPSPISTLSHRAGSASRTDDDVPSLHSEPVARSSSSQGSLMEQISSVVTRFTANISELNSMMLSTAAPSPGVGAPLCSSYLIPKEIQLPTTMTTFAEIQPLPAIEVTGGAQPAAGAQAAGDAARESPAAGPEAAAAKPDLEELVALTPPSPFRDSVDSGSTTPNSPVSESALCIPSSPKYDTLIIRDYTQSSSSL
# T9 sequence (Q9UBS5 15-961 limits assumed): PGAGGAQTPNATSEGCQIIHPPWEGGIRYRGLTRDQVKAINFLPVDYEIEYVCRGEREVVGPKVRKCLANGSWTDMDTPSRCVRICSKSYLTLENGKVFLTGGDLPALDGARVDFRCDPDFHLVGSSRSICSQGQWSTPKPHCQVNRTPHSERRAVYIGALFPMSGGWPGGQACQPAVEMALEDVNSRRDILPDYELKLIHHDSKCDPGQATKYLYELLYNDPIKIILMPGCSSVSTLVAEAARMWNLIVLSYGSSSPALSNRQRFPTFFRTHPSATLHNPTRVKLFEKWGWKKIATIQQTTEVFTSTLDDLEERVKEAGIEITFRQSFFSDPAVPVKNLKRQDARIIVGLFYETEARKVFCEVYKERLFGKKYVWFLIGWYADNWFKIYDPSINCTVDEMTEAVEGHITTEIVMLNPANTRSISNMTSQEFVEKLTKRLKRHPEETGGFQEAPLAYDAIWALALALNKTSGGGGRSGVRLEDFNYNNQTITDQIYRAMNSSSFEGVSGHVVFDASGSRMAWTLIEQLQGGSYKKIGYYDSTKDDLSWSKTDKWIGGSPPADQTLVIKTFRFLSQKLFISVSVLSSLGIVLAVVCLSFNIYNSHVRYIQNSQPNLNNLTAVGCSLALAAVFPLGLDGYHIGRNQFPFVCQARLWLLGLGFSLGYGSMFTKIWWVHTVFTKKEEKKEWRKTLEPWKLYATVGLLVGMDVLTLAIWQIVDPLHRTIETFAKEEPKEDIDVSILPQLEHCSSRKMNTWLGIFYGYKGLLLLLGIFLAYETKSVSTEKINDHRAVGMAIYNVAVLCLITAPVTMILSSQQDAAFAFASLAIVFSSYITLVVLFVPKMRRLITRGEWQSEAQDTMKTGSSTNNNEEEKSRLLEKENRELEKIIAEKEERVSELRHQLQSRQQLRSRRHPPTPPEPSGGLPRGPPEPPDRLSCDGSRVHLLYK
# T9 sequence (O75899 42-941 partner): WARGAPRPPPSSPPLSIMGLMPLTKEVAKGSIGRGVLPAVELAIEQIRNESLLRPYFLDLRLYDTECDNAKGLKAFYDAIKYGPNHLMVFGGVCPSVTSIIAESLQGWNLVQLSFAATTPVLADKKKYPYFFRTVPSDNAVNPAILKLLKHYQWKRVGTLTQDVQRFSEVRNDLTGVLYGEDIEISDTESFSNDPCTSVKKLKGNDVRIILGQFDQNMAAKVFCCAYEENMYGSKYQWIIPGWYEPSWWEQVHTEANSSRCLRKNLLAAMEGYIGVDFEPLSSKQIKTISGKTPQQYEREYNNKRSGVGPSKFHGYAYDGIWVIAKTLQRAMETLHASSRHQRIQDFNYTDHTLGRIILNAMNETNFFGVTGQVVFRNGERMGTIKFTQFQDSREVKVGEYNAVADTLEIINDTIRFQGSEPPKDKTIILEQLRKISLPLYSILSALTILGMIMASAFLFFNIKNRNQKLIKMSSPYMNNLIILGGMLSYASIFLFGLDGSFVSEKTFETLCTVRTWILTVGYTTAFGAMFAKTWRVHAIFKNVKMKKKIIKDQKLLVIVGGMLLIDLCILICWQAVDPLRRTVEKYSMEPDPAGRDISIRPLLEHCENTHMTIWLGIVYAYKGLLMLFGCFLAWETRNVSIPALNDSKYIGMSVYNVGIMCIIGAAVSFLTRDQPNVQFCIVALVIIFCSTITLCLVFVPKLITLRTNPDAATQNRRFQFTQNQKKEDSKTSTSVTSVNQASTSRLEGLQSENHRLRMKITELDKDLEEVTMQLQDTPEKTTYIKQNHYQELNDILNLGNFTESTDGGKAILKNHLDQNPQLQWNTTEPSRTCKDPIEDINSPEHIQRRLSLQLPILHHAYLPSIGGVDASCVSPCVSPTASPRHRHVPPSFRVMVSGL
# T5 sequence (P34903 29-492): as the sequence (P34903 29-492) above
# T5 sequence (P18505 26-474): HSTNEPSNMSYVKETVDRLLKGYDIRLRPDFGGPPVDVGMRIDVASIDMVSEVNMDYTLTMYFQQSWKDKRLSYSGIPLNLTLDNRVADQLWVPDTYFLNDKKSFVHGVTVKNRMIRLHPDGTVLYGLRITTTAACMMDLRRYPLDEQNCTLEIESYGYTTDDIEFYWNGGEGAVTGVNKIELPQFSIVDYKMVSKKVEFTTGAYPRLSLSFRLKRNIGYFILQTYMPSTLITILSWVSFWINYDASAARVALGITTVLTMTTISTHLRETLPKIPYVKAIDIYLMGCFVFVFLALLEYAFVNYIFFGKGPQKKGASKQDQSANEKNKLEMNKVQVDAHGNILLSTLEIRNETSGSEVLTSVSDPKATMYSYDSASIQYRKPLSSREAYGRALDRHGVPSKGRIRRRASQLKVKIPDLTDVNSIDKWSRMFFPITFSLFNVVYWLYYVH
# T5 sequence (P18507 40-475 partner): as the sequence (P18507 40-475 partner) above
SMILES,inhibition at 100 µM (mGluR1),inhibition at 100 µM (mGluR2),inhibition at 100 µM (mGluR5; [3]),inhibition at 100 µM (mGluR5; [4]),"% of radioligand binding inhibition, NMDA nonspec (NMDA nonspecific)","% of radioligand binding inhibition, kainate nonspec (kainate nonspecific)",EC50 (GABAA α2β3γ2),EC50 (GABAA α3β1γ2),EC50 (GABAA α3β2γ2),EC50 (GABAA α3β3γ2),EC50 (GABAA α4β1γ2),inhibition at 100 µM (GABAB (B1a/B2)),inhibition at 100 µM (GABAB (B1b/B2)),"% of agonist response, GABAB (B1/B2) (GABAB (B1/B2))",Potassium-induced release from preloaded synaptosomes [1],Astrocyte uptake and conversion to 2MeGln [2],IC50 (GABAA α3β3γ2; antagonist mode)
"C[C@@](N)(CCC(=O)O)C(=O)O [(R)-2MeGlu, (R)-2-methylglutamic acid]",-3%,-3%,-20%,-2%,8%,18%,622 µM,742 µM,> 1000 µM,959 µM,870 µM,18%,13%,0%,not significantly altered by depolarization,"not detected within astrocytes in significant amounts, and no conversion to 2MeGln was detected",–
"C[C@](N)(CCC(=O)O)C(=O)O [(S)-2MeGlu, (S)-2-methylglutamic acid]",6%,25%,11%,-4%,3%,20%,342 µM,782 µM,961 µM,725 µM,704 µM,6%,14%,0%,released upon depolarization in a manner very similar to endogenous Glu,transported into astrocytes and then converted into 2MeGln,978 µM
